According to patent publication EP1310250A1, “Use of the compound 2-methoxyphenyl-1-methyl-5P-methylbenzoyl-pyrrol-2-acetamido acetate for the production of an antiinflammatory drug with prevention of gastric hypersecretion and renal impairment” (MEDOSAN Ricerca S.r.l., priority 1997, dated 1999):
Where “and” joins values, the source holds several entries; their conditions need not be identical. Identical values can stand only once. Marks after values point to notes of the source that are not given here.

Assays:
[1] = tested on: isolated, perfused, immature rat stomach; assay: Antisecretive activity in vitro, isolated perfused immature rat stomach; settings: agonist Histamine 10^-4 M, antagonist 10^-4 M
Source text: Male Wistar rats, 250±10 g b.w. (Charles River, Calco, Como, Italy), quarantined for five days prior to the beginning of the trial and divided into groups of 3 animals per cage, were used for determination of gastric lesions and of ID50 determination. Immature male Wistar rats, 30-45 g b.w. (Harlan Nossan, Milano) were used for the determination of the antisecretory effect on isolated rat stomach. The guinea-pigs used were the Dunkin Hartley guinea-pigs (Harlan Nossan, Milano, Italy).
At the beginning, the isolated, perfused, immature rat stomach, treated externally with the study product, was used. We preferred to use the isolated stomach in toto rather than strips (B.R. No. 18, 19 and 20) in order not to exclude a section of the stomach (the antrum), unimportant for acid secretion but very important for the secretion of bicarbonates and bioactive peptides (b.r. No. 21, 22). The results were encouraging, since amtolmetin guacyl inhibited acid production stimulated by the three classic agonists (histamine, acetilcholine and gastrin) both using varying doses of agonist or varying doses of amtolmetin guacyl (Table 5).
The results are expressed as mean±S.E.

[2] = tested on: post-traumatic arthralgia; assay: Clinical trials: analgesic properties in post-traumatic arthralgia; type: in vivo, man; settings: Amtolmetin guacyl 600mgx2-daily, Diclofenac 50mgx2-daily, 15 patients each
Source text: The same can be said in the treatment of post-traumatic arthralgia.

diuresis = assay: Diuresis in normally hydrated rats; type: in vivo; settings: normally hydrated rats treated orally for 8 consecutive days (figure 13)
Protocol: In the course of various studies conducted on animals to show the lack of renal impairment, a test was carried out to compare the diuresis in normally hydrated rats treated orally for 8 consecutive days with amtolmeting guacyl and diclofenac, which is also a NSAID.

[3] = tested on: carrageenin-induced paw oedema; assay: Determination of ID50, carrageenin-induced paw oedema; type: in vivo, rat; settings: five times the oral ID50 for oedema inhibition, 2 h after carrageenin
Protocol: ID50, relative to the products under examination (considered in table 1), has been evaluated using the anti-inflammatory response to carrageenin-induced paw oedema (according to Wong et al, J Pharmacol Exp, 1973:1855; pages 127-138). The products, suspended in 1% CMC, were administered orally in a total volume of 5 ml/rat. 1 h later, 0.1 ml of 1% carrageenin sterile solution was injected into the hind subplantar aponeurosis. Volume of the paw was measured immediately prior to injection of the phlogogen and 2 h thereafter, by means of a plethysmograph. The percentage of inhibition of oedema was calculated as follows: 1 - ΔV treated/ΔV control x 100 [formula] where ΔV = final V - initial V.

rat gastric mucosa = settings: male, Wistar, in vivo, po, 4 days
Protocol: The animals entered in the trial, randomized and divided into groups of 6 rats each, were fasted for 16 h prior to treatment, with access to water ad libitum. They were re-fed 1 h after drug administration. The compound 2-methoxyphenyl-1-methyl-5p-methylbenzoyl-pyrrol-2-acetamido acetate and the other reference NSAIDs, suspended in 1% carboxymethylcellulose (CMC) solution, were orally administered by gastric gavage in a volume of 6ml/kg for four consecutive days. Controls received the vehicle in the same way as the treated animals. 4 h after the last administration the animals were killed by ether overdose; the stomachs were removed, rinsed with 10 ml of saline and immersed in 1% formalin. They were later opened along the greater curvature and the mucosa examined for lesions.
The seriousness of the lesion was quantified according to a scale graduated from 1 to 3 according to the size of the lesions: 1= ulcer < 1mm; 2= ulcer 1-2mm; 3= ulcer > 2mm. The total sum was divided by 10 to obtain the "erosion index". The gastric lesions were evaluated by two independent investigators under blind conditions according to Main & Whittle method (BJ Pharmac 1975:53; p. 217-224).
Since the average daily dose in man (for the anti-inflammatory activity) is 600 mg, the comparative efficacious dose in the rat is in the ratio of 12:1. More precisely, comparative evaluation with the other NSAID compounds was calculated as follows: 600 mg/die: 50 mg/kg = daily dose of reference NSAID in man: X [formula] where X represents the daily dose of the reference NSAID in rat. This criterion keeps into account the "real" activity ratio in man. In this work the "ratio to rat dosage" has also been included which keeps into account ratios homogeneous to the same animal species. To evaluate the "ratio to rat dosage" the ID50 has been determined using the carrageenin-induced oedema as inflammatory test.
In order to exacerbate possible side effects on the stomach the dosage of amtolmetin guacyl was quadruplicated.

gastric mucosa = assay: Histological evaluation of the gastric mucosa by an independent laboratory; settings: single animals; oral gavage: amtolmetin guacyl 50 mg/kg, diclofenac 7.5 mg/kg, tolmetin 66.6 mg/kg
Protocol: In order to obtain a histological evaluation of the results obtained in our laboratories, an independent laboratory was provided with identical samples of the material evaluated by us, under totally blind conditions.
Controls received the vehicle only, also by oral gavage. 4 h after the final administration the animals were killed by ether overdose and the stomachs removed, rinsed in saline and immersed in formalin 4%.

Adjuvant arthritis = assay: Adjuvant arthritis: joint inflammation and patellar bone erosion; type: in vivo, rats; settings: patellar bone mass; MED 15 25, 50, 100mg/kg, piroxicam 3mg/kg
Protocol: The drugs were administered daily by oral gavage for 4 days (day 0-3); piroxicam and MED 15 were dissolved in 5% Gum arabic + 0.01% Tween 80, and administered in a volume of 0.5ml. Piroxicam was administered as 3mg/kg and MED 15 was administered as 25, 50 and 100mg/kg doses. Table 8 bis illustrating dosage regimes. L=left stifle joint, R=Right stifle joint.
Under halothane anaesthesia, rats received 200µg of heat-killed finely ground Mycobactyerium tubercolosis in 25µl (80mg/10ml sterile saline) injected intra-articulary into the left stifle joint. The contralateral joint received 25µl 0.9% sterile saline. Control animals received 25µl of 0.9% sterile saline in both knees. SGE 50µl microsyringes with a volume lock calibrated at 25µl were used with 30G stainless steel needles. Solutions were prepared sterile, and aseptic technique was used throughout, with sterilisation of syringes between groups.
The rats were killed by carbon dioxide suffocation. The body weight was noted and the skin overlying the stifle joints was divided and the joint diameters assessed in mm using Mitutoyo vernier callipers (530-312, 0.02mm).
The patellae were dissected, weighed (Sartorius, 0.01mg) and then immersed in 1ml digestion buffer (see below) to remove soft tissue.
Digestive buffer was prepared fresh to the following formula; disodium hydrogen orthophosphate 20mM, EDTA 1mM and diothiothreitol at 2mM. […]

CN/C(=N/CCSCc1nc[nH]c1C)NC#N [Cimetidine, cimetidine, reference compound]
% inhib. [1]: 78.6% | Δacid ([1]; mean±S.E.): 14.3 ± 7.2 nmol/min

O=C(O)Cc1ccccc1Nc1c(Cl)cccc1Cl [Diclofenac sodium, diclofenac sodium]
Duration [2]: 180 min | Latency [2]: 20 min | Max. time effect [2]: 60 min | diuresis (diuresis): clear decrease | Ratio to rat dosage (mg/kg) (ID50 mg/kg x5) [3]: 15.8 mg/kg | further gastric findings (table footnotes) (rat gastric mucosa): Each value is the mean of 6 rats. ^a)Diffuse haemorrhagic gastritis was also present | Macroscopic findings (gastric mucosa): 2 and 4 and 7 | Microscopic findings (gastric mucosa): 2* and 3* and 9*

CN1C(C(=O)Nc2ccccn2)=C(O)c2ccccc2S1(=O)=O [Piroxicam, piroxicam]
protection against bone loss (Adjuvant arthritis): greatest protection against bone loss | Ratio to rat dosage (mg/kg) (ID50 mg/kg x5) [3]: 13.8 mg/kg

Cc1ccc(C(=O)c2ccc(CC(=O)O)n2C)cc1 [Tolmetin, tolmetin]
Gastrolesive index (rat gastric mucosa): 79.7 | Macroscopic findings (gastric mucosa): 3 and 0 (2×) | Microscopic findings (gastric mucosa): 2+ and 0+ and 1+
